A value given as a limit tells only on which side of the number the result lay.

For `COC(=O)c1cncn1C1c2ccccc2CSC1(C)C` (configuration not stated), the melting point (in general, the temperature of the solid-liquid transition) was in the range of 108 to 109 °C.
To `Cc1nc(N(C)N)[nH]c(=O)c1CCO` belongs 180 °C; to `COc1ccnc(CCc2nc3cc(-c4ccc(S(=O)(=O)NCCO)cc4)cnc3[nH]2)c1`, 218 to 220 °C; to `CCc1[nH]n(C2CCCC2)c2nc(-c3cc(OCCN4CCOCC4)cc(OCCN4CCOCC4)c3)nc(=O)c1-2`, 182 to 183 °C.
For `Cc1c(C)c2c(c(C)c1O)SC(C)(c1ccccc1)O2` (configuration not stated), the melting point lay in the range of 80 to 81 °C.
To `Cc1[nH]c2ccc(CCN(C)C3CCOCC3)cc2c1C(=O)OCc1ccccc1` belongs 109 to 111 °C; to `CC1(C)OC(=O)Nc2ccc(-c3ccc(C#N)[nH]3)cc21`, 241 to 242 °C.
To `CCN(CC)CCCNC(=O)Cn1ncc(-c2ccc(F)cc2)c1-c1ccccc1` belongs 82 to 83 °C; to `c1ccc2c(c1)CCc1ccccc1C2CNc1ccncc1`, 145 to 146 °C; to `COc1ccccc1[C@@]1(O)[C@H](O)CC(c2ccccc2)(c2ccccc2)[C@@H]2CN(C(=O)Cc3ccccc3N3CCCC3)C[C@@H]21` (racemic), 236 °C.
To `Fc1ccc(-c2nn3c(c2-c2ccncc2)NCC3)cc1` belongs 213 to 214 °C; to `c1ccc(NC2=NC3CCCc4cccc(c43)N2)cc1` (configuration not stated), 233 to 235 °C.
For the compound `CCOC(=O)c1ccc(NCc2cc(Br)ccc2OCc2ccccc2)c(OC)c1`, the melting point amounted to 78 °C.
To `COc1ccc(Oc2c(N)cc(C(=O)O)cc2S)cc1` belongs 182 to 184 °C.
As for `Nc1c(F)c(N2CC[C@@H](C3(NCCO)CC3)C2)c(F)c2c1c(=O)c(C(=O)O)cn2[C@@H]1C[C@@H]1F`, the melting point lay in the range of 198 to 200 °C.
To `CC1(C)C(=N)N(CC(N)=O)c2ccccc21` belongs 167 to 173 °C; to `O=C1NC(=O)c2cc(C(c3ccc4c(c3)C(=O)NC4=O)(C(F)(F)F)C(F)(F)F)ccc21`, 322 °C; to `O=C(Nc1nc(=O)c2cnn3c2n1CC=C3c1cccc(C(F)(F)F)c1)c1ccccc1`, 235 to 239 °C.
To `N=C(Cl)c1c(Cc2ccc(Cl)cc2)nc2ccc(I)cc2c1O` belongs 172 to 174 °C; to `COc1ccc2cn[nH]c(=O)c2c1`, 228 to 229 °C.
To `COc1ccnc(CN2C(=O)C(NC(=O)Nc3cccc(C)c3)N=C(c3ccccc3F)c3ccccc32)c1` (configuration not stated) belongs 195 to 200 °C; to `CCn1c2c(c3ccccc31)S(=O)(=O)N(C)C(C(=O)Nc1ccccn1)=C2O`, 232 °C.
As to `COC(=O)[C@H](Cc1ccccc1)NC(=O)c1ccc(N)cc1`, the melting point was in the range of 145 to 146 °C.
For `CC(C)n1c(=O)[nH]oc1=O`, the melting point is 150 °C.
To `CCCCN=C(CS(C)=O)c1ccccc1O` (configuration not stated) belongs 128 to 129 °C; to `O=C(c1ccccc1Nc1ccncc1)N1CCCCC1`, 153 to 156 °C; to `Cc1c(Br)c(C)c(Cc2ccc(C(C)C)cc2)c2c1CCO2`, 95 to 96 °C.
In the case of `CC1=C(C(=O)OC(CN2CCCCC2)c2ccccc2)C(c2cccc([N+](=O)[O-])c2)n2ccnc2N1` (configuration not stated), the melting point lay within 205 to 206 °C.
To `CS(=O)(=O)Oc1ccc(-c2c3ccccc3c(Cl)c3sc4ccccc4c23)cc1` belongs 155 to 158 °C.
To `O=Cc1cc(C(=O)CCl)c[nH]1` belongs 178 to 179 °C.
`N#CC1=C(c2cccs2)Nc2n[nH]cc2C1c1cccc2nsnc12` (configuration not stated): the melting point was 254 °C.
To `C#CCN(c1ccc(C(=O)OC(C)(C)C)cc1)C1CCc2cc3nc(COC)[nH]c(=O)c3cc21` (racemic) belongs 191 to 192 °C.
Turning to `Nc1ccccc1-c1cc2ccc(Cl)cc2[nH]c1=O`, the melting point lay in the range of 155 to 157 °C.
Consider `C[C@H]1CC[C@H]2C(C)(C)C(=NN3CCOCC3)CC[C@]23Oc2c(c(O)cc4c2CNC4=O)C[C@]13C`, for which the melting point was 202 to 205 °C.
Compound `Cn1cc(S(C)(=O)=O)c(=O)c2ccc(C(F)(F)F)cc21` yielded a melting point of 300 to 301 °C.
For the compound `COC(=O)C1=C(N)OC(C)=C(C(C)=O)C1c1cccc([N+](=O)[O-])c1` (configuration not stated), the melting point lay within 160 to 163 °C.
To `CC(C)(c1ccc(Oc2ccc([N+](=O)[O-])cc2F)cc1)c1cccc(C(C)(C)c2ccc(Oc3ccc([N+](=O)[O-])cc3F)cc2)c1` belongs 151 to 152 °C; to `Nc1ccc(C(=O)NCC(=O)O)cc1F`, 198 to 200 °C.
In turn, `CC(C)c1cccc(C(C)C)c1NC(=O)NC1CCCCC1c1ccccc1` (configuration not stated) registered a melting point of 225 to 226 °C.
To `COc1ccc(OC)c(C2(Cl)C(=O)Nc3ccc(Cl)cc32)c1` (configuration not stated) belongs 157 °C.
To `COc1cc(CCN2CCc3cc(O)ccc3C2)cc(OC)c1OC` belongs 180 to 186 °C; to `O=S(=O)(c1ccc(Cl)cc1)N1CCC[C@@H](Nc2nccc(-c3c(-c4cccc(O)c4)nc4sccn34)n2)C1`, 174 to 177 °C; to `CCCCCCCCCC(=O)Nc1ccc(S(=O)(=O)Nc2nnc(CC(=O)OCC)s2)cc1`, 89 to 90 °C.
The compound `N#Cc1cc(C(=O)O)cnc1Br` had a melting point of 170 to 172 °C.
To `CC(C)(COc1ccc2ncnn2n1)CS(N)(=O)=O` belongs 181 to 184 °C; to `O=S(=O)(CCS(=O)(=O)c1nc(-c2ccc(F)cc2)c(-c2ccc(F)cc2)[nH]1)c1nc(-c2ccc(F)cc2)c(-c2ccc(F)cc2)[nH]1`, 246 to 248 °C.
To `Cc1nc(-c2cccc(Cl)c2)c2cc(C(O)(c3ccc(Cl)cc3)c3cncn3C)ccc2n1` (configuration not stated) belongs 223 °C; to `Cc1ccc(CN2C(=O)C(C)Oc3c(C(=O)NC4CN5CCC4CC5)cc(Cl)cc32)cc1` (configuration not stated), 156 °C.
To `COc1cc(CCc2ccc(O)c(O)c2)cc(OC)c1OC` belongs 113 to 115 °C; to `Oc1ccc2c(nc(C(F)F)n2-c2nc(N3CCOCC3)nc(N3CCOCC3)n2)c1Cl`, over 250 °C.
Consider `CON(Cc1ccc(Cl)c(Cl)c1)C(=O)C1=C(O)C(=O)N(C)C1`, for which the melting point is 149 °C.
As to `COCCSCC(=O)[C@H](Cc1ccccc1)NC(=O)[C@H](CC(C)C)NC(=O)OCc1ccccc1`, the melting point was 68 to 69 °C.
To `CC(CCC(=O)NC(C)(C)CO)C1CCC2C3C(=O)CC4CC(O)CCC4(C)C3CC(O)C12C` (configuration not stated) belongs 229 to 231 °C.
To `Oc1ccc(-c2nc3ccc(O)cc3o2)c(O)c1` belongs 293 to 296 °C.
The compound `COc1ccc(Cn2nc(-n3cnn(Cc4ccc(F)cc4)c3=O)cc2C(=O)O)cc1` registered a melting point of 205 to 207 °C.
To `O=C(c1coc(-c2ccc(CCl)cc2)n1)N1CCCC1` belongs 126 to 128 °C; to `Cc1ccc2c(c1)OC(C(F)(F)F)C(C(=O)O)=C2` (configuration not stated), 202 to 203 °C; to `Cc1c(NN)nc(N)nc1-c1ccco1`, 155 to 160 °C.
To `COc1ccc(C(=O)Nc2ccccc2)cc1NCc1ccc(O)c([N+](=O)[O-])c1` belongs 175 to 176 °C; to `CC[C@@H](CO)[C@](O)(Cn1cncn1)c1ccc(F)cc1F`, 75 to 77 °C.
To `CC(C)OC(=O)N1CCC(c2nc3cc(-c4ccc(C(=O)O)cn4)ccc3o2)CC1` belongs 239 to 242 °C; to `O=C(N=c1sc2cc(OC(F)(F)F)ccc2n1CCN1CCN(c2ccccn2)CC1)C(F)(F)F`, 132 °C; to `CCCc1ccccc1OCCCCCOc1ccc2c(=O)cc(C(=O)OCC)oc2c1CCC`, 73 to 75 °C.
`COc1ccc2c(c1)C13CCCOC1(C)C(C2)N(C#N)CC3` (configuration not stated) displayed a melting point of 157 to 158 °C.
To `N=C(N)c1ccncc1` belongs 136 to 140 °C; to `CC(C)(C)c1ccc(NC(Nc2ccc(C(C)(C)C)cc2)Nc2ccc(C(C)(C)C)cc2)cc1`, 157 to 158 °C.
To `CSc1cc(CF)nc(N)n1` belongs 95 to 97 °C; to `Cc1cc(OCc2cnc(-c3ccc(OC(F)(F)F)cc3)nc2C(F)(F)F)ccc1OC(C)(C)C(=O)O`, 154 °C; to `O=c1nc(-c2ccnc(N3CCN(c4ccc(F)cc4)CC3)c2)sc2ccccc12`, 233 to 234 °C.
To `CCOC(=O)c1c(Nc2cc(F)ccc2[N+](=O)[O-])sc2ccccc12` belongs 137 to 140 °C; to `CCCc1c(C(=O)C(C)C)c2ccc(C(=O)O)cc2n1Cc1ccccc1C`, 186 to 188 °C; to `C=CCN1N=C(c2ccc3c(c2)N(S(C)(=O)=O)CCO3)CCC1=O`, 153 to 155 °C.
For `O=C1COc2ccccc2O1`, the melting point lay in the range of 45 to 53 °C.
To `O=C(NCc1cccnc1)C(F)(F)F` belongs 102 to 104 °C; to `Cc1oc(-c2ccco2)nc1COc1ccc(COc2nn(C)cc2CC(=O)O)cn1`, 155 to 156 °C.
Compound `CCc1cc(C(C)=O)c(O)c(C(=O)Nc2nnn[nH]2)c1` gave a melting point of 257 to 258 °C.
To `Cc1cc(C)c(Cc2nc(C)nc(O)c2C)c(C)c1` belongs 260 to 262 °C; to `COc1ccc(OCC2SCCN2C(=O)CCl)cc1` (configuration not stated), 51 to 53 °C; to `CNC(=O)c1ccc([C@@H]2C[C@H]3C=C(c4c[nH]c(-c5ccc(F)c(Cl)c5)c4-c4ccncc4)CCN3C2)cc1`, 176 to 178 °C.
To `CC(=O)NC[C@H]1CN(c2ccc(C3C=CS(=O)(=O)CC3)cc2)C(=O)O1` (some centres not stated) belongs 187 to 189 °C; to `CC(C)(C)OC(=O)Nc1ccc(-c2ccc(S(=O)(=O)n3ccc(/C=C/C(=O)NOC4CCCCO4)c3)cc2)cn1` (configuration not stated), 140 to 146 °C.
To `Cc1ccc(S(=O)(=O)CNc2ccc(C(F)(F)F)cc2)cc1` belongs 135 °C; to `Cc1cc2nc(N)[nH]c(=O)c2[nH]1`, 252 to 254 °C; to `Cc1cn2cccc(C=Cc3ccccc3)c2n1`, 101 to 105 °C.
With `COC(=O)c1cc(-c2cccc([N+](=O)[O-])c2)cc2c1OCC2`, the melting point fell in the range of 53 to 57 °C.
In the case of `CCCOc1ccc(F)c2c(=O)c(-c3ccc(OC)cc3)cn(CC(=O)NC3CCNCC3)c12`, the melting point lay within 226 to 228 °C.
With `COc1cccc(CC(O)C2CCN(CS(N)(=O)=O)CC2)c1OC` (configuration not stated), the melting point fell in the range of 112 to 114 °C.
